Consider seven compounds from patent US10647752B2, “Polypeptides capable of inhibiting the binding between leptin and Neuropilin-1” (INSERM (Institut National de la Sante et de la Recherche …, priority 2015, dated 2020).

For test [1], the system named is Serine/Threonine casein kinase2 (CK2). The experiment in a line: CK2 inhibition in breast cancer cell lines: NRP-1 and JAK2 phosphorylation and NRP-1/OBR complex formation. The format is cell-based. As to conditions: MDA-MB231 / T47D breast cancer cell lines.
The test system of a further test is NRP-1/OBR complex. The experiment in a line: NRP-1/OBR complex detection in MDA-MB231 breast cancer cell line by proximity ligation assay (PLA). The format is cell-based. The following applies: MDA-MB231 cultivated in normal human serum, Avastin 40 μg/ml for 48 h, compared to untreated cells. The protocol: NRP-1 and OBR Complex Detection in MBA-MB231 Breast Cancer Cell Line by Immunocytochemistry Using a PLA Technology
The detection of NRP-1/OBR complex in human MDA-MB231 breast cancer cell line was assessed by proximity ligation assay (PLA) or duolink technology (www.olink.com). The detection of the NRP-1/OBR complex was assessed on MDA-MB231 cell line cultivated in normal human serum (human male AB plasma, USA origin, MDL number MFCD00165829 H4522 Sigma) and treated or not with Avastin 40 μg/ml final concentration for 48 h. The goal by using human serum was to mimic a physiologic condition during therapy with Avastin. The immunostained samples were analysed by the acquisition of the Z stacks through confocal microscopy on Zeiss LSM 700, Inverted confocal microscope. The acquired images were analyzed using Image J software for the quantification of NRP-1/OBR complex expressed by cells.

Test [2] relates to MDA-MB231 breast cancer cell line. The experiment in a line: In vitro cell migration of MDA-MB231 breast cancer cell line. The class given is cell-based, human.
The target of a further test is T1, NRP-1 (Homo sapiens, UniProt O14786).
T1 construct: the extracellular domain of the recombinant protein NRP-1 from RnD systems; purchased RnD systems
The experiment in a line: Bio-layer interferometry (BLI) protein:protein interaction with NRP-1. As to conditions: for interaction (binding) with NRP-1 by BLI: recombinant proteins, extracellular domain of recombinant NRP-1 for the peptide; for competition between leptin and VEGF for binding to NRP-1: BLI competition experiment. The class given is binding. The procedure:
Bio-Layer Interferometry Bio-layer interferometry (BLI) is a label-free technique that is sensitive to an increase of mass bound to the biosensor enabling protein-protein interaction characterization. Ligands preparation: proteins were incubated in a PBS buffer with a 1:3 ratio molar ratio of biotin (biotin-PEG4-NHS from Pierce EZ kit, prepared following the manufacturer's instructions). Free biotin was removed using a desalting column (Pierce). The biotinylated protein (called ligand) was immobilized onto streptavidin biosensor tips and dipped into wells containing the buffer with the analyte of interest (association) or without (dissociation). Experimental conditions were as follow: total volume in each well: 200 μl; shake speed: 1,000 rpm. For simple protein:protein interactions an association phase was followed by a dissociation phase. For competition experiments, the association phase was followed by another association phase with a second analyte instead of a dissociation phase. Sensorgrams were background corrected, smoothed with the Savitzky-Golay algorithm and analyzed using OctetRED instrument software (ForteBio Data Analysis version 7.1). Experimental sensorgrams were first fit to a 1:1 model. The 1:1 model was accepted if the Chi^2 test was below 3 and the R^2 was above 0.9. When the 1:1 model was rejected, the model with the lowest Chi^2 and the highest R^2 was then selected.
In general terms: BLI is a label-free optical method that tracks binding on a fibre tip over time.

Entries after “also recorded” stand apart in the source; their conditions may differ.

As for `O=C(O)c1ccc2c(c1)nc(Nc1cccc(Cl)c1)c1ccncc12` [CX4945], in test [1], the “NRP-1 and JAK2 phosphorylation” value is “prevented”; the “formation of the NRP-1/OBR complex” value is reported as “prevented”.

As to `OC[C@H]1O[C@@H](n2cnc3cc(Cl)c(Cl)cc32)[C@H](O)[C@@H]1O` [DRB], in test [1], the “NRP-1 and JAK2 phosphorylation” value is “prevented”; the “formation of the NRP-1/OBR complex” value is listed as “prevented”.

On to `Brc1c(Br)c(Br)c2n[nH]nc2c1Br` [TBB], for which, in test [1], the “NRP-1 and JAK2 phosphorylation” value was “prevented”; the “formation of the NRP-1/OBR complex” value was “prevented”.

Consider “Avastin: Anti-VEGF (bevacizumab) antibody”, for which the “number of NRP-1/OBR complex” value with NRP-1/OBR complex is on record as “increase of NRP-1/OBR complex detection; also recorded: high number of NRP-1/OBR complex”. Moreover, the cell migration entry in test [2] is reported as “induces in vitro cell migration; also recorded: increased MDA-MB231 cell migration”.

Turning to “ENLRDLLHVLAFSKSCHLPWASGLETL (listed as Homo sapiens) [SEQ ID:3]”, in the test with NRP-1, the “interaction (binding) with NRP-1 by BLI” value is given as “validated by BLI”.

Regarding VEGF, the “competition between leptin and VEGF for binding to NRP-1” value on NRP-1 is reported as “does not prevent leptin binding to NRP-1”.

As to “leptin: cytokine-like hormone mainly produced by adipocytes; recombinant protein”, in the test with NRP-1, the “competition between leptin and VEGF for binding to NRP-1” value is listed as “do not compete with VEGF binding”; the “interaction (binding) with NRP-1 by BLI” value is on record as “direct interaction”.
